Data: ChEMBL document CHEMBL1150349, “Design and synthesis of hydroxy-alkynoic acids and their methyl esters as novel activators of BK channels” (Bioorg Med Chem Lett, 2008)
Calls of active or inactive are those of the source. No cut-off for these calls is given here.

target: Calcium-activated potassium channel subunit alpha-1 (Rattus norvegicus) (UniProt Q62976); assay: Activation of BK channel in rat cerebral myocytes by voltage patch clamp method; assay type: cell-based
Sequence (Q62976 whole entry): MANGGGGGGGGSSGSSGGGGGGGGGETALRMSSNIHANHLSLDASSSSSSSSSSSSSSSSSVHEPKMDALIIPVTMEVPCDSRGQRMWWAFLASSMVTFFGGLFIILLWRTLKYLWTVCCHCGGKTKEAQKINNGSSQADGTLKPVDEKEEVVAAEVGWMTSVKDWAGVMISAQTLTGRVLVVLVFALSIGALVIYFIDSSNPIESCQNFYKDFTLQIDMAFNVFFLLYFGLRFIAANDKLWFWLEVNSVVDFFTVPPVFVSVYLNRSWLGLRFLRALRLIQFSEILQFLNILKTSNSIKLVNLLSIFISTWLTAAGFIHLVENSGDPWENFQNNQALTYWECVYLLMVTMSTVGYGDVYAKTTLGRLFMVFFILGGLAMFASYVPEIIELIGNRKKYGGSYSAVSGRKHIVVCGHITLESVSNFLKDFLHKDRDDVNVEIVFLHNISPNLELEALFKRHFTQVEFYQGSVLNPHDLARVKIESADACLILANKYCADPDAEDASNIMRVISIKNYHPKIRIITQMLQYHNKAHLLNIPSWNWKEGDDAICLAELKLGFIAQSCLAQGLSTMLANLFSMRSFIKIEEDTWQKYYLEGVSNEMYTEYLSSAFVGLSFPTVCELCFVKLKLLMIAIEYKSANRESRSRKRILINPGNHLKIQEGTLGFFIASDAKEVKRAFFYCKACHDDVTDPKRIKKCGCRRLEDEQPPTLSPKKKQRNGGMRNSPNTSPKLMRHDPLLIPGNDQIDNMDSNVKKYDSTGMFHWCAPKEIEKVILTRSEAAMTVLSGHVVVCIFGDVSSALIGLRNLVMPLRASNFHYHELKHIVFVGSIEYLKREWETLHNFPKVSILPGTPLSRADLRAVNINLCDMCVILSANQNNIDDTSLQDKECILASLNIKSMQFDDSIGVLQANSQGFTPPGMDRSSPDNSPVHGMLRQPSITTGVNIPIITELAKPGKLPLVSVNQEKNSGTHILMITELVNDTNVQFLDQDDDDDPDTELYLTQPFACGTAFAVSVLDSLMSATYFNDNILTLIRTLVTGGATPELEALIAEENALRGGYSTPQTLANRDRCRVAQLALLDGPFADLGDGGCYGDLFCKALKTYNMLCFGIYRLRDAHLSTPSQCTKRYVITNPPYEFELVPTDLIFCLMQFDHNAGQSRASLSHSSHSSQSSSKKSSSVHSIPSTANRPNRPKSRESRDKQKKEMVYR

| SMILES | Activity |
| --- | --- |
| COC(=O)CCCC#CCCO | inactive |
| COC(=O)CCCCCCCC#CCCCCO | inactive |
| COC(=O)CCCCCCCCCC#CCCCCO | inactive |
| COC(=O)CCCCC#CCCCO | Active |
| O=C(O)CCCCCC#CCCCO | Active |
| O=C(O)CCCCCC#CCCCCO | Active |
